We go through six compounds from PMC10569036.

The nature of data set [1]: shake flask on a mixture of 185; loss from the water phase only; LC-Orbitrap peak areas. The settings on record: room.
Data set [2] is described as follows: shake flask on a mixture of 185; loss from the water phase only; LC-QTOF peak areas. To be noted: room.

For `C[C@H](CCC(=O)O)[C@H]1CC[C@H]2[C@@H]3CC[C@@H]4C[C@H](O)CC[C@]4(C)[C@H]3CC[C@]12C`, in data set [1], the “log partition 1-octanol / HPLC water, unbuffered, traces of methanol / DMSO” value (from here on “log partition 1-octanol / HPLC water”) is 1.225 log10; the “log partition butyl acetate / HPLC water, unbuffered, traces of methanol / DMSO” value (shortened to “log partition butyl acetate / HPLC water”) worked out at 0.9932 log10; the “log partition chloroform / HPLC water, unbuffered, traces of methanol / DMSO” value (“log partition chloroform / HPLC water” below) is given as 1.423 log10; the “log partition cyclohexane / HPLC water, unbuffered, traces of methanol / DMSO” value (shortened to “log partition cyclohexane / HPLC water”) is listed as 0.1846 log10. Besides, in data set [1], the “log partition dichloromethane / HPLC water, unbuffered, traces of methanol / DMSO” value amounted to 0.6345 log10; the “log partition n-hexane / HPLC water, unbuffered, traces of methanol / DMSO” value (from here on “log partition n-hexane / HPLC water”) is given as -0.08609 log10; the “log partition n-octane / HPLC water, unbuffered, traces of methanol / DMSO” value (from here on “log partition n-octane / HPLC water”) was 0.2702 log10; the “log partition n-undecane / HPLC water, unbuffered, traces of methanol / DMSO” value (from here on “log partition n-undecane / HPLC water”) was determined as 0.118 log10. In data set [1], the “log partition oleylalcohol / HPLC water, unbuffered, traces of methanol / DMSO” value (“log partition oleylalcohol / HPLC water” below) is given as -0.1437 log10 and the “log partition toluene / HPLC water, unbuffered, traces of methanol / DMSO” value (“log partition toluene / HPLC water” for short) worked out at 0.6204 log10. For the same compound, in data set [2], the “log partition 1-octanol / HPLC water” value was 0.06003 log10; the “log partition butyl acetate / HPLC water” value is listed as -0.5367 log10; the “log partition chloroform / HPLC water” value came to 0.5205 log10; the “log partition cyclohexane / HPLC water” value was -1.544 log10. In data set [2], the “log partition dichloromethane / HPLC water, unbuffered, traces of methanol / DMSO” value is 0.7072 log10; the “log partition n-hexane / HPLC water” value is reported as -1.606 log10; the “log partition n-octane / HPLC water” value is -1.699 log10; the “log partition n-undecane / HPLC water” value is recorded as -0.8435 log10. Further, in data set [2], the “log partition oleylalcohol / HPLC water” value is -0.1203 log10 and the “log partition toluene / HPLC water” value was -1.053 log10.
`COC(=O)C(C)N(C(=O)c1ccco1)c1c(C)cccc1C` (stereo not shown): in data set [1], the “log partition 1-octanol / HPLC water” value was 1.653 log10; the “log partition butyl acetate / HPLC water” value was determined as 2.039 log10; the “log partition chloroform / HPLC water” value is given as 1.758 log10; the “log partition dichloromethane / HPLC water, unbuffered, traces of methanol / DMSO” value is 1.796 log10. Moreover, in data set [1], the “log partition oleylalcohol / HPLC water” value came to 1.315 log10 and the “log partition toluene / HPLC water” value was found to be 1.918 log10. In data set [2], the “log partition 1-octanol / HPLC water” value amounted to 2.113 log10; the “log partition butyl acetate / HPLC water” value was 2.322 log10; the “log partition chloroform / HPLC water” value is 2.434 log10; the “log partition dichloromethane / HPLC water, unbuffered, traces of methanol / DMSO” value came to 2.829 log10. Moreover, in data set [2], the “log partition oleylalcohol / HPLC water” value came to 2.215 log10 and the “log partition toluene / HPLC water” value was found to be 2.516 log10.
In the case of `CCCOC(=O)c1ccc(C(=O)OCCC)nc1`, in data set [1], the “log partition 1-octanol / HPLC water” value is 1.279 log10; the “log partition butyl acetate / HPLC water” value was determined as 1.476 log10; the “log partition chloroform / HPLC water” value is given as 1.242 log10; the “log partition cyclohexane / HPLC water” value is on record as 1.195 log10. For the same compound, in data set [1], the “log partition dichloromethane / HPLC water, unbuffered, traces of methanol / DMSO” value is listed as 1.399 log10; the “log partition n-hexane / HPLC water” value was found to be 1.051 log10; the “log partition n-octane / HPLC water” value is on record as 1.355 log10; the “log partition n-undecane / HPLC water” value was 0.8718 log10. Besides, in data set [1], the “log partition oleylalcohol / HPLC water” value turned out to be 1.396 log10 and the “log partition toluene / HPLC water” value is listed as 1.5 log10. In data set [2], the “log partition 1-octanol / HPLC water” value amounted to 2.274 log10; the “log partition butyl acetate / HPLC water” value is 2.305 log10; the “log partition chloroform / HPLC water” value is on record as 2.347 log10; the “log partition cyclohexane / HPLC water” value is recorded as 2.074 log10. In data set [2], the “log partition dichloromethane / HPLC water, unbuffered, traces of methanol / DMSO” value turned out to be 2.554 log10; the “log partition n-hexane / HPLC water” value amounted to 2.244 log10; the “log partition n-octane / HPLC water” value is 2.086 log10; the “log partition n-undecane / HPLC water” value is 2.019 log10. In addition, in data set [2], the “log partition oleylalcohol / HPLC water” value worked out at 2.412 log10 and the “log partition toluene / HPLC water” value is reported as 2.485 log10.
In the case of `c1ccc2[nH]c(-c3cscn3)nc2c1`, in data set [1], the “log partition 1-octanol / HPLC water” value came out at 1.814 log10; the “log partition butyl acetate / HPLC water” value worked out at 2.093 log10; the “log partition chloroform / HPLC water” value stood at 1.499 log10; the “log partition cyclohexane / HPLC water” value was 0.0278 log10. Further, in data set [1], the “log partition dichloromethane / HPLC water, unbuffered, traces of methanol / DMSO” value came out at 1.694 log10; the “log partition n-hexane / HPLC water” value is recorded as -0.1668 log10; the “log partition n-octane / HPLC water” value is listed as -0.1168 log10; the “log partition n-undecane / HPLC water” value is recorded as -1.167 log10. In data set [1], the “log partition oleylalcohol / HPLC water” value is given as 1.762 log10 and the “log partition toluene / HPLC water” value was 0.9569 log10. Also, in data set [2], the “log partition 1-octanol / HPLC water” value is reported as 0.8781 log10; the “log partition butyl acetate / HPLC water” value was determined as 0.7498 log10; the “log partition chloroform / HPLC water” value is 0.5738 log10; the “log partition cyclohexane / HPLC water” value is -1.051 log10. In data set [2], the “log partition dichloromethane / HPLC water, unbuffered, traces of methanol / DMSO” value stood at 0.733 log10; the “log partition n-hexane / HPLC water” value was -0.9485 log10; the “log partition n-octane / HPLC water” value is listed as -1.018 log10; the “log partition n-undecane / HPLC water” value is listed as -1.324 log10. In addition, in data set [2], the “log partition oleylalcohol / HPLC water” value is recorded as 0.7334 log10 and the “log partition toluene / HPLC water” value was found to be 0.2898 log10.
`CCCCOC(=O)C(C)Oc1ccc(Oc2ccc(C(F)(F)F)cn2)cc1` (stereo not shown): in data set [1], the “log partition 1-octanol / HPLC water” value was found to be 1.133 log10; the “log partition butyl acetate / HPLC water” value is 4.432 log10; the “log partition chloroform / HPLC water” value worked out at 2.334 log10; the “log partition cyclohexane / HPLC water” value is recorded as -0.5049 log10. Also, in data set [1], the “log partition dichloromethane / HPLC water, unbuffered, traces of methanol / DMSO” value was 3.927 log10; the “log partition n-hexane / HPLC water” value was -1.029 log10; the “log partition n-octane / HPLC water” value is recorded as -0.5477 log10; the “log partition n-undecane / HPLC water” value is listed as -0.5963 log10. Moreover, in data set [1], the “log partition oleylalcohol / HPLC water” value is recorded as 1.914 log10 and the “log partition toluene / HPLC water” value is given as -0.7173 log10. Further, in data set [2], the “log partition 1-octanol / HPLC water” value worked out at 1.531 log10; the “log partition butyl acetate / HPLC water” value is 1.572 log10; the “log partition chloroform / HPLC water” value was found to be 2.874 log10; the “log partition cyclohexane / HPLC water” value was found to be 2.387 log10. Also, in data set [2], the “log partition dichloromethane / HPLC water, unbuffered, traces of methanol / DMSO” value worked out at 2.183 log10; the “log partition n-hexane / HPLC water” value came out at 2.824 log10; the “log partition n-octane / HPLC water” value came to 2.349 log10; the “log partition n-undecane / HPLC water” value came out at 2.336 log10. In addition, in data set [2], the “log partition oleylalcohol / HPLC water” value was 1.771 log10 and the “log partition toluene / HPLC water” value came to 2.12 log10.
With `Cn1cnc([N+](=O)[O-])c1Sc1ncnc2nc[nH]c12`, in data set [1], the “log partition 1-octanol / HPLC water” value worked out at 0.3085 log10; the “log partition butyl acetate / HPLC water” value was determined as 0.621 log10; the “log partition chloroform / HPLC water” value amounted to 0.1897 log10; the “log partition cyclohexane / HPLC water” value is -1.394 log10. Also, in data set [1], the “log partition dichloromethane / HPLC water, unbuffered, traces of methanol / DMSO” value is listed as 0.2139 log10; the “log partition n-hexane / HPLC water” value is -1.636 log10; the “log partition n-octane / HPLC water” value was -1.543 log10; the “log partition n-undecane / HPLC water” value is reported as -1.518 log10. In data set [1], the “log partition oleylalcohol / HPLC water” value is 0.1703 log10 and the “log partition toluene / HPLC water” value is recorded as -0.3549 log10. Besides, in data set [2], the “log partition 1-octanol / HPLC water” value was determined as 0.004535 log10; the “log partition butyl acetate / HPLC water” value is listed as -0.2382 log10; the “log partition chloroform / HPLC water” value was -0.4745 log10; the “log partition cyclohexane / HPLC water” value is recorded as -1.86 log10. Also, in data set [2], the “log partition dichloromethane / HPLC water, unbuffered, traces of methanol / DMSO” value is on record as -0.366 log10; the “log partition n-hexane / HPLC water” value is -1.66 log10; the “log partition n-octane / HPLC water” value is -2.343 log10; the “log partition n-undecane / HPLC water” value is on record as -2.232 log10. Also, in data set [2], the “log partition oleylalcohol / HPLC water” value was -0.3513 log10 and the “log partition toluene / HPLC water” value was -1.048 log10.
